From PMC6335420, “The cell cycle regulator GpsB functions as cytosolic adaptor for multiple cell wall enzymes” (Nature Communications, 2019)

Assays:
[1] = system: GpsB; test: Displacement of pre-bound PBP peptides from GpsB; assay type: binding; conditions: 100-fold molar excess of free L-arginine
[2] = system: SpGpsB; test: BACTH interaction with SpGpsB; assay type: cell-based, Streptococcus pneumoniae; conditions: E. coli BTH101, 30 °C, 36-40 h
Source text: The target genes were amplified by the PCR from S. pneumoniae D39 chromosomal DNA. PCR fragments for pbp2a, mreC, pbp1a, pbp2x and pbp2b were purified, digested with appropriate restriction enzymes and cloned into the corresponding sites of the pKT25/pUT18C vectors to generate plasmids encoding the corresponding hybrid proteins fused at the C-terminal ends of the T25 and T18 fragments, respectively. Plasmids pKNT25-gpsB/pUT18-gpsB, pKNT25-stkP/pUT18-stkP and pKNT25-ezrA/pUT18-ezrA were already constructed. The mutated and truncated gpsB and pbp2a alleles were amplified from their respective DNA templates and the corresponding PCR products cloned into the corresponding sites of the BACTH vectors as described above for the wild-type alleles. E. coli DH5α transformants were selected on LB agar plates containing ampicillin (100 μg^−1mL^−1) or kanamycin (50 μg^−1mL^−1) and 0.4% glucose to repress leaky expression.
BACTH experiments, each pair of plasmids was co-transformed into the E. coli cya- strain BTH101 and co-transformation mixtures were spotted onto LB agar plates supplemented with ampicillin ([…]), kanamycin ([…]) and X-Gal (40 μg^−1mL^−1), followed by incubation at 30 °C. Plates were inspected and photographed after 24 and 40 h. Plasmid pairs pKNT25/pUT18 and pKT25-zip/pUT18C-zip were used as negative and positive controls, respectively. […]

**Q.** How did the “displacement of pre-bound PBP peptides from GpsB” value [1] turn out when `N=C(N)NCCC[C@H](N)C(=O)O` [L-arginine] was run?
**A.** Its value is “does not displace pre-bound PBP peptides from GpsB”.

B1: SpPBP1a: S. pneumoniae class A PBP1a (protein)
chain: MNKPTILRLIKYLSISFLSLVIAAIVLGGGVFFYYVSKAPSLSESKLVATTSSKIYDNKNQLIADLGSERRVNAQANDIPTDLVKAIVSIEDHRFFDHRGIDTIRILGAFLRNLQSNSLQGGSALTQQLIKLTYFSTSTSDQTISRKAQEAWLAIQLEQKATKQEILTYYINKVYMSNGNYGMQTAAQNYYGKDLNNLSLPQLALLAGMPQAPNQYDPYSHPEAAQDRRNLVLSEMKNQGYISAEQYEKAVNTPITDGLQSLKSASNYPAYMDNYLKEVINQVEEETGYNLLTTGMDVYTNVDQEAQKHLWDIYNTDEYVAYPDDELQVASTIVDVSNGKVIAQLGARHQSSNVSFGINQAVETNRDWGSTMKPITDYAPALEYGVYESTATIVHDEPYNYPGTNTPVYNWDRGYFGNITLQYALQQSRNVPAVETLNKVGLNRAKTFLNGLGIDYPSIHYSNAISSNTTESDKKYGASSEKMAAAYAAFANGGTYYKPMYIHKVVFSDGSEKEFSNVGTRAMKETTAYMMTDMMKTVLSYGTGRNAYLAWLPQAGKTGTSNYTDEEIENHIKTSQFVAPDELFAGYTRKYSMAVWTGYSNRLTPLVGNGLTVAAKVYRSMMTYLSEGSNPEDWNIPEGLYRNGEFVFKNGARSTWSSPAPQQPPSTESSSSSSDSSTSQSSSTTPSTNNSTTTNPNNNTQQSNTTPDQQNQNPQPAQP
modifications: left off: T25 or T18 fragment of adenylate cyclase (vectors pKT25, pUT18C), N-terminal, kept
notes: S. pneumoniae class A PBP1a
**Q.** For B1, which “BACTH interaction with SpGpsB” value [2] is on record?
**A.** Its value is “interacted”.
